Measured values from publication PMC3777804 (Journal of computer-aided molecular design, 2013).

Tested on: cell-cell fusion of TZM-bl target cells and HL2/3 effector cells (HXB2 Env)
Assay: cell-cell fusion, luciferase reporter
Type: cell-based, HIV-1
Settings: read-out: IC50 CCF, 6 hours, 1% DMSO, results ±50%

Substance | IC50 [µM]
[Phe]-Trp | 9
[Trp]-Phe | 4
[Trp]-Trp | 19
